Test results taken from ChEMBL document CHEMBL1130884, “Synthesis of novel antifungal agents (2)” (1998).
≈ marks a conversion by molar mass, not a printed value.

Legend:
Aspergillus fumigatus = assay: Compound was tested in vitro for antifungal activity against Aspergillus fumigatus (CF1003); assay type: functional
Candida albicans = assay: Compound was tested for in vitro antifungal activity against Candida albicans (CY3003); assay type: functional
Mus musculus = assay: Compound was tested for antifungal activity by measuring systemic candidosis in mice on 7th day upon single peroral administration; assay type: functional; settings: po
Cryptococcus neoformans = assay: Compound was tested for in vitro antifungal activity against Cryptococcus neoformans (CY1057)

Compound	IC80 (Aspergillus fumigatus) [µg/mL]	IC80 (Candida albicans) [µg/mL]	ED50 (Mus musculus) [mg/kg]	IC80 (Cryptococcus neoformans) [µg/mL]
COC1[C@@H](Cn2cncn2)[C@H](COc2ccc(OC(C)(C)C)cc2)CC[C@@]1(C)CCn1ccnc1 (stereo partly specified)	84 (≈ 174 µM)	0.08 (≈ 0.166 µM)	50	0.24 (≈ 0.498 µM)
CO/N=C1/[C@@H](Cn2cncn2)[C@H](COc2ccc(OC(C)(C)C)cc2)CC[C@@]1(C)CCn1ccnc1	4.6 (≈ 9.3 µM)	0.22 (≈ 0.445 µM)	> 100	13 (≈ 26.3 µM)
COC1[C@@H](Cn2cncn2)[C@H](COc2ccc(OC(C)(C)C)cc2)CC[C@@]1(C)CCN1CCOCC1 (stereo partly specified)	158 (≈ 316 µM)	0.03 (≈ 0.0599 µM)	50	0.02 (≈ 0.0399 µM)
OC(Cn1cncn1)(Cn1cncn1)c1ccc(F)cc1F [FLUCONAZOLE]	> 200	1.4 (≈ 4.57 µM)	5.4	3.6 (≈ 11.8 µM)
CO/N=C1/[C@@H](Cn2cncn2)[C@H](COc2ccc(OC(C)(C)C)cc2)CC[C@@]1(C)CCSc1ncccn1	2.6 (≈ 4.83 µM)	0.85 (≈ 1.58 µM)	> 100	1.1 (≈ 2.04 µM)
COCC[C@]1(C)CC[C@@H](COc2ccc(OC(C)(C)C)cc2)[C@H](Cn2cncn2)/C1=N/OC	0.6 (≈ 1.31 µM)	0.05 (≈ 0.109 µM)	> 100	1 (≈ 2.18 µM)
COC1[C@@H](Cn2cncn2)[C@H](COc2ccc(OC(C)(C)C)cc2)CC[C@@]1(C)CCS(C)(=O)=O (stereo partly specified)	> 200	0.7 (≈ 1.42 µM)	50	0.38 (≈ 0.77 µM)
CSCC[C@]1(C)CC[C@@H](COc2ccc(OC(C)(C)C)cc2)[C@H](Cn2cncn2)/C1=N/O	0.45 (≈ 0.977 µM)	0.18 (≈ 0.391 µM)	> 100	21 (≈ 45.6 µM)
CO[C@@H]1[C@@H](Cn2cncn2)[C@H](COc2ccc(OC(C)(C)C)cc2)CC[C@@]1(C)CCSc1nccn1C	36 (≈ 68.2 µM)	0.5 (≈ 0.947 µM)	50	0.9 (≈ 1.71 µM)
